Data from patent publication US12551475B2, “Methods and compositions for treating RNA viral infections” (Model Medicines, Inc., priority 2020, dated 2026).
Where a name gives a salt, the structure may show the parent alone. Read-outs that look alike come from different tables or passages of the source.

Experiments:
HIV aspartyl protease = HIV aspartyl protease (Human immunodeficiency virus type 1 group M subtype B, UniProt P04585); conditions: cited from earlier work
HepG2 2.2.15 cells = conditions: cited from earlier work
hepatitis B virus (HBV) = conditions: HepG2 2.2.15 cells infected with HBV; cited from earlier work
HBV = conditions: mouse, in vivo; cited from earlier work
Notch signaling = conditions: cited from earlier work
ACE2 = target: T1, ACE2 (Homo sapiens, UniProt Q9BYF1); test: ACE2 activity assay; type: biochemical
T1 construct: purchased BPS Bioscience 79923 (assay kit)
Description: The ACE2 Activity Assay described in this example is designed to measure the exopeptidase activity of ACE2 for screening and profiling applications. The ACE2 assay can be performed in a convenient 96-well format, with purified ACE2, its substrate, and ACE2 buffer for 96 reactions. See https://bpsioscience.com/ace2-inhibitor-screening-assay-kit-79923
ACE2, ACE2 Fluorogenic Substrate, ACE2 buffer, 96-well black microplate. Adjustable micropipettor and sterile tips and Fluorescent microplate reader.
All Samples and Controls were Tested in Duplicate.
• 1. Thawed ACE2 on ice. Upon first thaw, tube containing enzyme was briefly spun to recover full contents of the tube. Note: ACE2 is sensitive to freeze/thaw cycles. • 2. Prepared Enzyme solution (0.5 ng/μl ACE2) by diluting ACE2 in ACE2 Buffer. • 3. Added 20 μl of Enzyme solution (0.5 ng/μl ACE2) to each well designated “Positive Control” and “Test Inhibitor,” and 20 μl of ACE2 buffer to each well designated “Blank.” • 4. Added 5 μl of Test Inhibitor solution to each well designated “Test Inhibitor.” For the wells labeled “Positive Control” and “Blank,” added 5 μl of 10% DMSO in water (Inhibitor buffer). The final concentration of DMSO in the reaction was kept ≤1%. • 5. Added 25 μl of ACE2 Fluorogenic Substrate to all wells. Protected from light and reaction was incubated at room temperature for 60 minutes.
• 6. The fluorescence intensity of the samples (λexcitation=555 nm; λemission=585 nm) was read in an appropriate microplate reader. Data Analysis
All of the enzyme activity assays were performed in duplicates at each concentration. The fluorescent intensity data were analyzed using the computer software Graphpad Prism. In the absence of the compound, the fluorescent intensity (Ft) in each data set was defined as 100% activity. In the absence of the enzyme, the fluorescent intensity (Fb) in each data set was defined as 0% activity. The percent activity in the presence of each compound was calculated according to the following equation: % activity=(F−Fb)/(Ft−Fb), where F=the fluorescent intensity in the presence of the compound.
The values of percentage activity were plotted on a bar graph.

γ-secretase = conditions: cited from earlier work
[1] = target: mitochondrial long-chain 3-ketoacyl thiolase (Homo sapiens, UniProt P55084); conditions: cited from earlier work
MCF-7 cells = conditions: cited from earlier work
MKN45 cells = conditions: cited from earlier work
COLO205 cells = conditions: cited from earlier work
HCT116 cells = conditions: cited from earlier work
Scaber cells = conditions: cited from earlier work
SIHA cells = conditions: cited from earlier work
HIV-1 = conditions: MT-4 cells; cited from earlier work
HIV-2 protease = HIV-2 protease (Human immunodeficiency virus type 2 subtype A, UniProt P04584); conditions: cited from earlier work
[2] = 20 mg/kg saquinavir with 50 mg/kg ritonavir, mice; cited from earlier work
MCF-7:C cells = conditions: 10 nM; cited from earlier work
[3] = target: GABAA receptor α1 subunits (Homo sapiens, UniProt P14867); conditions: cited from earlier work
[4] = target: transient receptor potential canonical channel 5 (TRPC5) (Homo sapiens, UniProt Q9UL62); conditions: cited from earlier work
S. viridans = conditions: various strains; cited from earlier work
S. epidermidis = conditions: various strains; cited from earlier work
S. pneumoniae = conditions: various strains; cited from earlier work
S. aureus = conditions: various strains; cited from earlier work
[5] = test system: HT-29 human colon adenocarcinoma cells; conditions: read-out: IC50 (DNA damage); cited from earlier work
[6] = test system: HT-29 human colon adenocarcinoma cells; conditions: read-out: IC50 (cytotoxicity); cited from earlier work
[7] = test system: isolated peripheral blood mononuclear cells; conditions: cited from earlier work
[8] = target: lysophosphatidic acyl transferase (LPAAT); conditions: LPS-activated LPAAT; read-out: IC50 (generation of phosphatidic acid); cited from earlier work
[9] = target: human acidic mammalian chitinase (Homo sapiens, UniProt Q9BZP6); conditions: cited from earlier work
Sequence of human acidic mammalian chitinase (Q9BZP6 22-476): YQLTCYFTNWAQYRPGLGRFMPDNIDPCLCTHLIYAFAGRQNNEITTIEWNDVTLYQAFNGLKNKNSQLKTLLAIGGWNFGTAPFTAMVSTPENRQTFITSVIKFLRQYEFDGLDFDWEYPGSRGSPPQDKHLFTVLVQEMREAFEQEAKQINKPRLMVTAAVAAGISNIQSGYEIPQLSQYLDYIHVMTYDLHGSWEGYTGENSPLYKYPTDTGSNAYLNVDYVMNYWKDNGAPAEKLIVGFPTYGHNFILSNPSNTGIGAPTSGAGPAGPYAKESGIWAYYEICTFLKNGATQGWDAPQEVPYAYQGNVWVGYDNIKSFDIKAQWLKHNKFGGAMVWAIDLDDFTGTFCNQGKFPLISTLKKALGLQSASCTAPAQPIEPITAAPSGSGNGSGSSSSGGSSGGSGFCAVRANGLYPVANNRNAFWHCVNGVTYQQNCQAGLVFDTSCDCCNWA

T1 sequence (Q9BYF1 18-805): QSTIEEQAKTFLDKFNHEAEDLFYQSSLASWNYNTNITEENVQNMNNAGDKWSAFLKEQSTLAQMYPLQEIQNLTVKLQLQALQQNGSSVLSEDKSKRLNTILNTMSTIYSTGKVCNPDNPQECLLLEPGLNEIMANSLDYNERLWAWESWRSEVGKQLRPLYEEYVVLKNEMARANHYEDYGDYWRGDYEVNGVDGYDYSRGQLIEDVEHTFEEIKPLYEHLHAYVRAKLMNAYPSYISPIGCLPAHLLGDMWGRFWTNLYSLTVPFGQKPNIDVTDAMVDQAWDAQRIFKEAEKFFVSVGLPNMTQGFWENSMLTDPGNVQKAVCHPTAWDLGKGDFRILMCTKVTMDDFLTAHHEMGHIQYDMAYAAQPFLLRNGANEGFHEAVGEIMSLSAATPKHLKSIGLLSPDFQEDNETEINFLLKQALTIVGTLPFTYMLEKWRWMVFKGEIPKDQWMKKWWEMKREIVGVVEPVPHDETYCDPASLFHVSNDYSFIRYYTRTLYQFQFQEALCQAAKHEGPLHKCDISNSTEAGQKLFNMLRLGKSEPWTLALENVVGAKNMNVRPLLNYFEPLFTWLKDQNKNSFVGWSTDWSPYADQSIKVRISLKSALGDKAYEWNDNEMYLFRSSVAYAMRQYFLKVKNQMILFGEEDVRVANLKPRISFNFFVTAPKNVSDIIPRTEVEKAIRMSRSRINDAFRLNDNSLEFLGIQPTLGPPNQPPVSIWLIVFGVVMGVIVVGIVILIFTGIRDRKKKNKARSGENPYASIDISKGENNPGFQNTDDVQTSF
Sequence of transient receptor potential canonical channel 5 (TRPC5) (Q9UL62 whole entry, species assumed): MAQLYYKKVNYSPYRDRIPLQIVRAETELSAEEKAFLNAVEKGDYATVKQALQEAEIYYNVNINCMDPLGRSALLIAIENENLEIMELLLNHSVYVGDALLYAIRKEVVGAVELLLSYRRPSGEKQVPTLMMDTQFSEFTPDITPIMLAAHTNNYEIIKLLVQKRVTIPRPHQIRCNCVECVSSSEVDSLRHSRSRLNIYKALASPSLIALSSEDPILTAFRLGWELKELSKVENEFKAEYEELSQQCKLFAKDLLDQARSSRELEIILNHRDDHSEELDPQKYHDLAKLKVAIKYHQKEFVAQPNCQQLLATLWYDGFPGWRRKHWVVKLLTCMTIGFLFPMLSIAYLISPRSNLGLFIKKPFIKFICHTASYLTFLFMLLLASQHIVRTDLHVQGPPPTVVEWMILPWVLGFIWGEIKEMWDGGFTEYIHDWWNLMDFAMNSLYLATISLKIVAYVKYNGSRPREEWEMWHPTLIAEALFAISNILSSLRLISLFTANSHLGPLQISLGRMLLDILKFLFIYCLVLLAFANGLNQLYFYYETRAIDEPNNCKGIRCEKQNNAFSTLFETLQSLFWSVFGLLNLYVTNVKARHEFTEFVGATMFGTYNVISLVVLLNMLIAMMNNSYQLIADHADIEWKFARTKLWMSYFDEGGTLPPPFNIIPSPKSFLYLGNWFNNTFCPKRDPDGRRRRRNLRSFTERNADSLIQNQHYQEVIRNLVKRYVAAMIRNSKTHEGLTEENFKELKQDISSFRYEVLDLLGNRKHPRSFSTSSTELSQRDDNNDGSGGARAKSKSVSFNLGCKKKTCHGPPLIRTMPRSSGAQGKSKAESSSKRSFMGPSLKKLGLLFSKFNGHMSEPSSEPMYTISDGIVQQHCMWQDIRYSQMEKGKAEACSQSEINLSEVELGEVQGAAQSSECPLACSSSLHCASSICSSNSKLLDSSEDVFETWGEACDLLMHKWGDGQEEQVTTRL
Sequence of HIV-2 protease (P04584 514-612 limits assumed): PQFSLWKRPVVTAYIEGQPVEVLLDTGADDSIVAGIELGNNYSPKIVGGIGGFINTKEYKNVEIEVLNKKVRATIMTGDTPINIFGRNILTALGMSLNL
Sequence of GABAA receptor α1 subunits (P14867 28-456): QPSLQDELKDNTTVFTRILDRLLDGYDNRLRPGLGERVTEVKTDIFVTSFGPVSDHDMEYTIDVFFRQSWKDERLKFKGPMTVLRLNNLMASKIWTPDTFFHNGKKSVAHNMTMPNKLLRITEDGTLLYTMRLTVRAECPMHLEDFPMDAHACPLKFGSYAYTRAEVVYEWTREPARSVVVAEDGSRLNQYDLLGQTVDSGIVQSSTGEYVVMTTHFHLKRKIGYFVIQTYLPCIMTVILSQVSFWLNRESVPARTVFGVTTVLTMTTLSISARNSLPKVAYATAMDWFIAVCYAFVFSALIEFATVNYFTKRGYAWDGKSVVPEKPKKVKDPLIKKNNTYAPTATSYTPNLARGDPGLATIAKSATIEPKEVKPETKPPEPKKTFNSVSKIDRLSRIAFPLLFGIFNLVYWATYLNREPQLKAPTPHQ
Sequence of GABAA receptor α1 subunits (P47870 25-512 partner limits assumed): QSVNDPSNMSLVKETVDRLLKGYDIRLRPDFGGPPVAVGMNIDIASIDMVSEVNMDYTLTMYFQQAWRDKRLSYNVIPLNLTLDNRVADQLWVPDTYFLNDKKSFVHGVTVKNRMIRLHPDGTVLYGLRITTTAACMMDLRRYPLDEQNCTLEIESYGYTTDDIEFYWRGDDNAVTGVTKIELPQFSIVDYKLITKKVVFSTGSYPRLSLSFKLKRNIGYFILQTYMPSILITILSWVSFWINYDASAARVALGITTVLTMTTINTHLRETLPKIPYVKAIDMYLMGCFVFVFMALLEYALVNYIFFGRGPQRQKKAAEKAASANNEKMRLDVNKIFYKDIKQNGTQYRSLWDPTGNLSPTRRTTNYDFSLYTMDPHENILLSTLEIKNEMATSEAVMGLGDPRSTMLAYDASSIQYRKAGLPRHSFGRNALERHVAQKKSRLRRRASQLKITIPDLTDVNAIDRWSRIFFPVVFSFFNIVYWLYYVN
Sequence of GABAA receptor α1 subunits (P18507 40-467 partner limits assumed): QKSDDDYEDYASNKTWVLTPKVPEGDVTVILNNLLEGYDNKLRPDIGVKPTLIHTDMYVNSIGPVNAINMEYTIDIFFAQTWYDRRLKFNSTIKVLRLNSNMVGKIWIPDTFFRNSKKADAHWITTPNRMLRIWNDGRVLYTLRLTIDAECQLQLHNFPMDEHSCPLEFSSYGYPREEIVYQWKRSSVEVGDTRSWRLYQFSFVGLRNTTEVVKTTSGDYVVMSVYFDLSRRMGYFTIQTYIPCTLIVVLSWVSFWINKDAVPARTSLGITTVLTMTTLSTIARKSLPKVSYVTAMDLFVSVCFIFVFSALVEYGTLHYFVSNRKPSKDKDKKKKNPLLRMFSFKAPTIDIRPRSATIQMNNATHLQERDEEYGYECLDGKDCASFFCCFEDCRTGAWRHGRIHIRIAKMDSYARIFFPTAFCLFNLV
Sequence of mitochondrial long-chain 3-ketoacyl thiolase (P55084 34-474): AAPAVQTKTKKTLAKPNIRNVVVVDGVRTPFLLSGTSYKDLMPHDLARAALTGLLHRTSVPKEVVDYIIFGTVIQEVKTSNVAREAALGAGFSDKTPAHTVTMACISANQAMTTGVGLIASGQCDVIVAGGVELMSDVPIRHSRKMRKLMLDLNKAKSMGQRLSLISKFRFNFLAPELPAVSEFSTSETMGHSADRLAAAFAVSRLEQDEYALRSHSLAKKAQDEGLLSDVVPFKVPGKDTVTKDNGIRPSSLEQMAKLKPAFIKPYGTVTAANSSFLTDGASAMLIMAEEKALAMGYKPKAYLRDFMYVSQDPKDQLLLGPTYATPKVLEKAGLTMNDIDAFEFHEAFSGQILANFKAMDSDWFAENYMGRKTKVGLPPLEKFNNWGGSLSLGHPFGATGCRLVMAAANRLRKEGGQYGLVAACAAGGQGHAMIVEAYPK
Sequence of mitochondrial long-chain 3-ketoacyl thiolase (P40939 37-763 partner): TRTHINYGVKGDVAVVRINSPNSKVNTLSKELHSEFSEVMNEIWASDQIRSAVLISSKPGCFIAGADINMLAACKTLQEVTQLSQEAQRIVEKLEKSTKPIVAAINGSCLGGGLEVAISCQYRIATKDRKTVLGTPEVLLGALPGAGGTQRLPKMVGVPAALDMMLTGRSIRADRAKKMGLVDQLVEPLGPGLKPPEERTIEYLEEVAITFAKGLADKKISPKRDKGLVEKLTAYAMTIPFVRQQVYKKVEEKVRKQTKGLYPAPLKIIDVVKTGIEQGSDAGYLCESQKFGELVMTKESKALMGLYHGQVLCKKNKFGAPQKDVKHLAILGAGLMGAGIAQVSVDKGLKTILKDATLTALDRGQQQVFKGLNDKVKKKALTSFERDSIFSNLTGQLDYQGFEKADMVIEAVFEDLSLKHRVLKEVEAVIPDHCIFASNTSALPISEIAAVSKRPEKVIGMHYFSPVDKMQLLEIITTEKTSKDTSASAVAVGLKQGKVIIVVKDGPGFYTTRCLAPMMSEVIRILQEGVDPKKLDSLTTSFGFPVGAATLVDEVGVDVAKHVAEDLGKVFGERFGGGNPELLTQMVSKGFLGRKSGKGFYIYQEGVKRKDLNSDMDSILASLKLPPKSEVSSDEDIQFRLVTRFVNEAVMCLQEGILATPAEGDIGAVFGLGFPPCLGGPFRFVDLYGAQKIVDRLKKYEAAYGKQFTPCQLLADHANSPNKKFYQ

CCC[C@@]1(CCc2ccccc2)CC(O)=C([C@H](CC)c2cccc(NS(=O)(=O)c3ccc(C(F)(F)F)cn3)c2)C(=O)O1 [Tipranavir, N-[3-[(1R)-1-[(6R)-5,6-dihydro-4-hydroxy-2-oxo-6-(2-phenylethyl)-6-propyl-2H-pyran-3-yl]propyl]phenyl]-5-(trifluoromethyl)-2-pyridinesulfonamide]
Ki (HIV aspartyl protease): < 0.001 µM

CC(C)(C)C(=O)OCOP(=O)(COCCn1cnc2c(N)ncnc21)OCOC(=O)C(C)(C)C [Adefovir dipivoxil, 2,2-dimethyl-propanoic acid, 1,1′-[[[[2-(6-amino-9H-purin-9-yl)ethoxy]methyl]phosphinylidene]bis(oxymethylene)]ester]
CC50 (HepG2 2.2.15 cells): 540 µM | EC50 (hepatitis B virus (HBV)): 0.517 µM | ED50 (HBV): 0.2 μmol/kg per day

CC(C)[C@H](O)C(=O)N[C@@H](C)C(=O)N[C@@H]1C(=O)N(C)CCc2ccccc21 [Semagacestat, (2S)-2-hydroxy-3-methyl-N-[(1S)-1-methyl-2-oxo-2-[[(1S)-2,3,4,5-tetrahydro-3-methyl-2-oxo-1H-3-benzazepin-1-yl]amino]ethyl]-butanamide]
IC50 (Notch signaling): 0.0141 µM | ACE2 Activity (Fluorescence count) Repeat 1 (ACE2; Semagacestat 0.00586 μM, Repeat 1): 16794 | activity at 0.00586 µM (ACE2; Semagacestat 0.00586 μM, Repeat 1, read-out: % Activity Repeat 1): 99% | ACE2 Activity (Fluorescence count) Repeat 2 (ACE2; Semagacestat 0.00586 μM, Repeat 2): 17665 | activity at 0.00586 µM (ACE2; Semagacestat 0.00586 μM, Repeat 2, read-out: % Activity Repeat 2): 104% | ACE2 Activity (Fluorescence count) Repeat 1 (ACE2; Semagacestat 0.0117 μM, Repeat 1): 17480 | activity at 0.0117 µM (ACE2; Semagacestat 0.0117 μM, Repeat 1, read-out: % Activity Repeat 1): 103% | ACE2 Activity (Fluorescence count) Repeat 2 (ACE2; Semagacestat 0.0117 μM, Repeat 2): 17772 | activity at 0.0117 µM (ACE2; Semagacestat 0.0117 μM, Repeat 2, read-out: % Activity Repeat 2): 105% | ACE2 Activity (Fluorescence count) Repeat 1 (ACE2; Semagacestat 0.0234 μM, Repeat 1): 17334 | activity at 0.0234 µM (ACE2; Semagacestat 0.0234 μM, Repeat 1, read-out: % Activity Repeat 1): 102% | ACE2 Activity (Fluorescence count) Repeat 2 (ACE2; Semagacestat 0.0234 μM, Repeat 2): 17846 | activity at 0.0234 µM (ACE2; Semagacestat 0.0234 μM, Repeat 2, read-out: % Activity Repeat 2): 105% | ACE2 Activity (Fluorescence count) Repeat 1 (ACE2; Semagacestat 0.188 μM, Repeat 1): 16603 | activity at 0.188 µM (ACE2; Semagacestat 0.188 μM, Repeat 1, read-out: % Activity Repeat 1): 97% | ACE2 Activity (Fluorescence count) Repeat 2 (ACE2; Semagacestat 0.188 μM, Repeat 2): 16796 | activity at 0.188 µM (ACE2; Semagacestat 0.188 μM, Repeat 2, read-out: % Activity Repeat 2): 99% | activity at […] (ACE2; Semagacestat 0.75 μM, Repeat 1, read-out: % Activity Repeat 1): 85% | activity at […] (ACE2; Semagacestat 0.75 μM, Repeat 2, read-out: % Activity Repeat 2): 98% | activity at […] (ACE2; Semagacestat 1.5 μM, Repeat 1, read-out: % Activity Repeat 1): 78% | activity at […] (ACE2; Semagacestat 1.5 μM, Repeat 2, read-out: % Activity Repeat 2): 85% | effect on ACE2 activity (in words) (ACE2; test range 0.0029-1.5): inhibited ACE2 activity | IC50 (γ-secretase; Aβ38, read-out: IC50 (production of Aβ38)): 0.012 µM | IC50 (γ-secretase; Aβ40, read-out: IC50 (production of Aβ40)): 0.0121 µM | IC50 (γ-secretase; Aβ42, read-out: IC50 (production of Aβ42)): 0.0109 µM

COc1ccc(CN2CCNCC2)c(OC)c1OC [Trimetazidine (hydrochloride), 1-[(2,3,4-trimethoxyphenyl)methyl]-piperazine, dihydrochloride]
IC50 [1]: 0.075 µM

CCCCCOC(=O)Nc1nc(=O)n([C@@H]2O[C@H](C)[C@@H](O)[C@H]2O)cc1F [Capecitabine, 5′-deoxy-5-fluoro-N-[(pentyloxy)carbonyl]-cytidine]
IC50 (MCF-7 cells): > 1000 µM | IC50 (MKN45 cells): 994 µM | IC50 (COLO205 cells): > 1000 µM | IC50 (HCT116 cells): > 1000 µM | IC50 (Scaber cells): 97 µM | IC50 (SIHA cells): 578 µM

CC(C)CN(C[C@@H](O)[C@H](Cc1ccccc1)NC(=O)O[C@H]1CCOC1)S(=O)(=O)c1ccc(N)cc1 [Amprenavir, N-[(1S,2R)-3-[[(4-aminophenyl)sulfonyl](2-methylpropyl)amino]-2-hydroxy-1-(phenylmethyl)propyl]-carbamic acid, (3S)-tetrahydro-3-furanyl ester]
IC50 (HIV-1): 0.15 µM

CC(C)(C)NC(=O)[C@@H]1C[C@@H]2CCCC[C@@H]2CN1C[C@@H](O)[C@H](Cc1ccccc1)NC(=O)[C@H](CC(N)=O)NC(=O)c1ccc2ccccc2n1.CS(=O)(=O)O [Saquinavir, (2S)—N^1—[(1S,2R)-3-[(3S,4aS,8aS)-3-[[(1,1-dimethylethyl)amino]carbonyl]octahydro-2(1H)-isoquinolinyl]-2-hydroxy-1-(phenylmethyl)propyl]-2-[(2-quinolinylcarbonyl)amino]-butanediamide, monomethanesulfonate]
Ki (HIV-2 protease): < 0.0001 µM | increase of bioavailability [2]: 325 fold

1-[[4-[2-(hexahydro-1H-azepin-1-yl)ethoxy]phenyl]methyl]-2-(4-hydroxyphenyl)-3-methyl-1H-indol-5-ol, acetate [Bazedoxifene (acetate)]
reduction of growth (MCF-7:C cells): 80%

CC(=O)N(C)c1cccc(-c2ccnc3c(C(=O)c4cccs4)cnn23)c1 [Indiplon, N-methyl-N-[3-[3-(2-thienylcarbonyl)pyrazolo[1,5-a]pyrimidin-7-yl]phenyl]-acetamide]
EC50 [3]: 0.0026 µM

Clc1ccc(Cn2c(CN3CCCC3)nc3ccccc32)cc1 [Clemizole, 1-[(4-chlorophenyl)methyl]-2-(1-pyrrolidinylmethyl)-1H-benzimidazole, monohydrochloride]
IC50 [4]: 1 to 1.3 µM

CCC[C@@H]1C[C@@H](C(=O)N[C@@H]([C@H]2O[C@H](SC)[C@H](O)[C@@H](O)[C@H]2O)[C@H](C)Cl)N(C)C1 [Clindamycin, methyl 7-chloro-6,7,8-trideoxy-6-[[[(2S,4R)-1-methyl-4-propyl-2-pyrrolidinyl]carbonyl]amino]-1-thio-L-threo-α-D-galacto-octopyranoside]
MIC (S. viridans): 0.005 to 0.2 µg/mL | MIC (S. epidermidis): 0.1 to 0.2 µg/mL | MIC (S. pneumoniae): 0.002 to 0.1 µg/mL | MIC (S. aureus): 0.04 to 1.6 µg/mL

CC[C@@]1(O)C(=O)OCc2c1cc1n(c2=O)Cc2cc3c(CN(C)C)c(O)ccc3nc2-1 [Topotecan, 10-[(dimethylamino)methyl]-4S-ethyl-4,9-dihydroxy-1H-pyrano[3′,4′:6,7]indolizino[1,2-b]quinoline-3,14(4H,12H)-dione, monohydrochloride]
IC50 [5]: 0.28 µM | IC50 [6]: 0.033 µM

CC(=O)CCCCn1c(=O)c2c(ncn2C)n(C)c1=O [Pentoxifylline, 3,7-dihydro-3,7-dimethyl-1-(5-oxohexyl)-1H-purine-2,6-dione]
IC50 [7]: 85 µM | IC50 [8]: 500 µM | IC50 [9]: 49 µM
